Structures can show the parent of a compound that is named as a salt.
Experiments:
Format in all cases: in vivo
[1] = tested on: Agropyron; experiment: Post-emergence test/greenhouse; conditions: greenhouse, after three weeks
Protocol: (§1) Post-emergence Test/greenhouse Solvent: 5 parts by weight of acetone Emulsifier: 1 part by weight of alkylaryl polyglycol ether To produce a suitable preparation of active compound, 1 part by weight of active compound is mixed with the stated amount of solvent, the stated amount of emulsifier is added and the concentrate is diluted with water to the desired concentration. Test plants which have a height of 5-15 cm are sprayed with the preparation of active compound such that the particular amounts of active compound desired are applied per unit area. The concentration of the spray liquor is chosen so that the particular amounts of active compound desired are applied in 500 l of water/ha. After three weeks, the degree of damage to the plants is assessed in % damage in comparison to the development of the untreated control. The figures denote: 0%=no effect (like untreated control) 100% total destruction

[2] = tested on: Alopecurus; experiment: Post-emergence test/greenhouse; conditions: greenhouse, after three weeks
Protocol: as §1

[3] = tested on: Avena; experiment: Post-emergence test/greenhouse; conditions: greenhouse, after three weeks
Protocol: as §1

[4] = tested on: Bromus; experiment: Post-emergence test/greenhouse; conditions: greenhouse, after three weeks
Protocol: as §1

[5] = tested on: Lolium; experiment: Post-emergence test/greenhouse; conditions: greenhouse, after three weeks
Protocol: as §1

[6] = tested on: Wheat; experiment: Post-emergence test/greenhouse; conditions: greenhouse; for degree of damage to the plants (% damage in comparison to the untreated control): Wheat, after three weeks; for compatibility with crop plants (wheat), in words: sodium salt of (I) at 60 g/ha
Protocol: as §1

[7] = tested on: weeds, such as, for example, Agropyron, Alopecurus, Avena, Bromus and Lolium; experiment: Post-emergence test/greenhouse, summary for weeds; conditions: greenhouse
Protocol: Post-emergence Test/greenhouse Solvent: 5 parts by weight of acetone Emulsifier: 1 part by weight of alkylaryl polyglycol ether To produce a suitable preparation of active compound, 1 part by weight of active compound is mixed with the stated amount of solvent, the stated amount of emulsifier is added and the concentrate is diluted with water to the desired concentration. Test plants which have a height of 5-15 cm are sprayed with the preparation of active compound such that the particular amounts of active compound desired are applied per unit area. The concentration of the spray liquor is chosen so that the particular amounts of active compound desired are applied in 500 l of water/ha. After three weeks, the degree of damage to the plants is assessed in % damage in comparison to the development of the untreated control. […] [“ai.”=“active ingredient”].

[8] = tested on: Alopecurus; experiment: Pre-emergence test/greenhouse; conditions: greenhouse, after three weeks
Protocol: (§2) Pre-emergence Test/greenhouse Solvent: 5 parts by weight of acetone Emulsifier: 1 part by weight of alkylaryl polyglycol ether To produce a suitable preparation of active compound, 1 part by weight of active compound is mixed with the stated amount of solvent, the stated amount of emulsifier is added and the concentrate is diluted with water to the desired concentration. Seeds of the test plants are sown in normal soil. After about 24 hours, the soil is sprayed with the preparation of active compound such that the particular amount of active compound desired is applied per unit area. The concentration of the spray liquor is chosen so that the particular amount of active compound desired is applied in 500 litres of water per hectare. After three weeks, the degree of damage to the plants is tested in % damage in comparison to the development of the untreated control. The figures denote: 0% no effect (like untreated control) 100%=total destruction

[9] = tested on: Avena; experiment: Pre-emergence test/greenhouse; conditions: greenhouse, after three weeks
Protocol: as §2

[10] = tested on: Bromus; experiment: Pre-emergence test/greenhouse; conditions: greenhouse, after three weeks
Protocol: as §2

[11] = tested on: Lolium; experiment: Pre-emergence test/greenhouse; conditions: 500 g ai./ha, greenhouse, after three weeks
Protocol: as §2

[12] = tested on: Setaria; experiment: Pre-emergence test/greenhouse; conditions: 500 g ai./ha, greenhouse, after three weeks
Protocol: as §2

[13] = tested on: Wheat; experiment: Pre-emergence test/greenhouse; conditions: greenhouse; for degree of damage to the plants (% damage in comparison to the untreated control): Wheat, after three weeks
Protocol: as §2

[14] = tested on: weeds, such as, for example, Agropyron, Alopecurus, Avena, Bromus, Lolium, Poa, Setaria and Sinapis; experiment: Pre-emergence test/greenhouse, summary for weeds; conditions: greenhouse
Protocol: as §2, with “control.” for “control. The figures denote: 0% no effect (like untreated control) 100%=total destruction”

[15] = tested on: Agropyron; experiment: Pre-emergence test/greenhouse; conditions: 15 g ai./ha, greenhouse, after three weeks
Protocol: as §2

[16] = tested on: Amaranthus; experiment: Pre-emergence test/greenhouse; conditions: 15 g ai./ha, greenhouse, after three weeks
Protocol: as §2

[17] = tested on: Poa; experiment: Pre-emergence test/greenhouse; conditions: 15 g ai./ha, greenhouse, after three weeks
Protocol: as §2

[18] = tested on: Sinapis; experiment: Pre-emergence test/greenhouse; conditions: 15 g ai./ha, greenhouse, after three weeks
Protocol: as §2

Row | Compound | degree of damage to the plants (% damage in comparison to the untreated control) ([1]; 60 g ai./ha) | degree of damage to the plants (% damage in comparison to the untreated control) ([2]; 60 g ai./ha) | degree of damage to the plants (% damage in comparison to the untreated control) ([3]; 60 g ai./ha) | degree of damage to the plants (% damage in comparison to the untreated control) ([4]; 60 g ai./ha) | degree of damage to the plants (% damage in comparison to the untreated control) ([5]; 60 g ai./ha) | degree of damage to the plants (% damage in comparison to the untreated control) ([6]; 60 g ai./ha) | herbicidal activity (in words, compared with the sodium salt of (I)) [7] | herbicidal activity (in words, compared with the sodium salt of (I)) [14] | compatibility with crop plants (wheat), in words [6] | degree of damage to the plants (% damage in comparison to the untreated control) [15] | degree of damage to the plants (% damage in comparison to the untreated control) [16] | degree of damage to the plants (% damage in comparison to the untreated control) ([9]; 15 g ai./ha) | degree of damage to the plants (% damage in comparison to the untreated control) [17] | degree of damage to the plants (% damage in comparison to the untreated control) [18] | degree of damage to the plants (% damage in comparison to the untreated control) ([13]; 15 g ai./ha) | other results
1 | CCCCOc1nn(C(=O)NS(=O)(=O)c2ccccc2C(=O)OC)c(=O)n1C [(A), 2-(2-Methoxycarbonyl-phenylsulphonylaminocarbonyl)-4-methyl-5-butoxy-2,4-dihydro-3H-1,2,4-triazol-3-one] | 0% | 0% | 50% | 0% | 0% | 0% | considerably weaker herbicidal activity | considerably weaker herbicidal activity | – | – | – | – | – | – | – | degree of damage to the plants (% damage in comparison to the untreated control) ([8]; 500 g ai./ha): 20%; degree of damage to the plants (% damage in comparison to the untreated control) ([9]; 500 g ai./ha): 0%; degree of damage to the plants (% damage in comparison to the untreated control) ([10]; 500 g ai./ha): 30%; degree of damage to the plants (% damage in comparison to the untreated control) [11]: 0%; degree of damage to the plants (% damage in comparison to the untreated control) [12]: 0%; degree of damage to the plants (% damage in comparison to the untreated control) ([13]; 500 g ai./ha): 0%
2 | CCOc1nn(C(=O)NS(=O)(=O)c2ccccc2C(=O)OC)c(=O)n1C [(B), 2-(2-Methoxycarbonyl-phenylsulphonylaminocarbonyl)-4-methyl-5-ethoxy-2,4-dihydro-3H-1,2,4-triazol-3-one-sodium salt] | – | – | – | – | – | – | – | – | not entirely compatible with wheat | 40% | 70% | 60% | 70% | 70% | 40% | degree of damage to the plants (% damage in comparison to the untreated control) ([1]; 30 g ai./ha): 90%; degree of damage to the plants (% damage in comparison to the untreated control) ([2]; 30 g ai./ha): 90%; degree of damage to the plants (% damage in comparison to the untreated control) ([3]; 30 g ai./ha): 90%; degree of damage to the plants (% damage in comparison to the untreated control) ([4]; 30 g ai./ha): 80%; degree of damage to the plants (% damage in comparison to the untreated control) ([5]; 30 g ai./ha): 90%; degree of damage to the plants (% damage in comparison to the untreated control) ([6]; 30 g ai./ha): 60%; compatibility with crop plants (wheat), in words ([13]; sodium salt of (I) at 15 g/ha to 60 g/ha): not entirely compatible with wheat
3 | COC(=O)c1ccccc1S(=O)(=O)NC(=O)n1nc(OC(C)C)n(C)c1=O.[Na] [(C), 2-(2-Methoxycarbonyl-phenylsulphonylaminocarbonyl)-4-methyl-5-isopropoxy-2,4-dihydro-3H-1,2,4-triazol-3-one-sodium salt] | 60% | 70% | 50% | 70% | 70% | 0% | considerably weaker herbicidal activity | considerably weaker herbicidal activity | – | – | – | – | – | – | – | –
4 | CCCOc1nn(C(=O)NS(=O)(=O)c2ccccc2C(=O)OCC)c(=O)n1C [(D), 2-(2-Ethoxycarbonyl-phenylsulphonylaminocarbonyl)-4-methyl-5-propoxy-2,4-dihydro-3H-1,2,4-triazol-3-one] | 70% | – | 20% | 80% | 30% | 0% | considerably weaker herbicidal activity | considerably weaker herbicidal activity | – | – | – | – | – | – | – | –
5 | CCCOn1c(C)nn(C(=O)NS(=O)(=O)c2ccccc2C(=O)OC)c1=O [(E), 2-(2-Methoxyxcarbonyl-phenylsulphonylaminocarbonyl)-4-propoxy-5-methyl-2,4-dihydro-3H-1,2,4-triazol-3-one] | – | – | – | – | – | – | considerably weaker herbicidal activity | considerably weaker herbicidal activity | – | – | – | – | – | – | – | degree of damage to the plants (% damage in comparison to the untreated control) ([2]; 250 g ai./ha): 70%; degree of damage to the plants (% damage in comparison to the untreated control) ([3]; 250 g ai./ha): 0%; degree of damage to the plants (% damage in comparison to the untreated control) ([4]; 250 g ai./ha): 50%; degree of damage to the plants (% damage in comparison to the untreated control) ([5]; 250 g ai./ha): 50%; degree of damage to the plants (% damage in comparison to the untreated control) ([6]; 250 g ai./ha): 0%
6 | CCCOc1nn(C(=O)NS(=O)(=O)c2ccccc2C(=O)OC)c(=O)n1CC [(F), 2-(2-Methoxycarbonyl-phenylsulphonylaminocarbonyl)-4-ethyl-5-propoxy-2,4-dihydro-3H-1,2,4-triazol-3-one] | 50% | 50% | 40% | 50% | 30% | 20% | considerably weaker herbicidal activity | considerably weaker herbicidal activity | not entirely compatible with wheat | 0% | 70% | 0% | 0% | 70% | 0% | degree of damage to the plants (% damage in comparison to the untreated control) ([8]; 15 g ai./ha): 40%; degree of damage to the plants (% damage in comparison to the untreated control) ([10]; 15 g ai./ha): 20%

From patent US6395684B1, “Selective herbicides based on a substituted phenyl sulfonyl amino carbonyl triazolinone” (Bayer Aktiengesellschaft, priority 1998, dated 2002)
